This is an account of results in patent US10064848B2, “Pyridic ketone derivatives, method of preparing same, and pharmaceutical application thereof” (Shanghai Hengrui Pharmaceutical Co., Ltd., priority 2013, dated 2018).

Data set [1] concerns the target T1, MEK1 (Recombinant Human Protein) (Homo sapiens, UniProt Q02750).
T1 construct: purchased Invitrogen PV3093
Description: MEK1 kinase inhibition assay (Z'-LYTE Kinase Assay Kit-Ser/Thr 03 Peptide). Format: biochemical. Conditions: 4 hours at 37° C, read-out: IC50 for inhibiting MEK kinase (MEK1). How it is done:
MEK1 kinase activity was tested in vitro by the following method.
MEK kinase used in the assay: MEK1 (Recombinant Human Protein, Invitrogen, Catalog No. PV3093).
Kit used in the assay: Z′-LYTE™ Kinase Assay Kit-Ser/Thr 03 Peptide (Invitrogen, Catalog No. PV3176).
The following in vitro assay was used to determine the activity of the compounds of the present invention for inhibiting the […] MEK kinase. The test compound was dissolved in dimethyl sulfoxide to the desired concentration. 1× Buffer A (Invitrogen, Catalog No. PV3189) was prepared, ATP was diluted with 1× Buffer A to obtain 400 μM ATP solution, appropriate amounts of Z′-LYTE™ Ser/Thr 03 Peptide (Invitrogen, Catalog No. PV3200), MEK kinase (MEK1) Enzymes and 1× Buffer A were mixed, and appropriate amounts of Z′-LYTE™ Ser/Thr 03 phosphoPeptide substrate (Invitrogen, Catalog No. PV3215) and 1× Buffer A were formulated into a mixture to be tested. The 4% DMSO solution of the test compound was prepared from 1× buffer and DMSO solution of the test compound. 2.5 μL DMSO solution of the test compound was added to a reaction well, and then 1× Buffer A, 2.5 μL of 400 μM ATP solution, 5 μL of enzyme and substrate mixture were added to become a 10 μL of reaction system. The reaction system was incubated for 4 hours at 37° C., and a mixture was prepared according to Reagent A:Buffer B=1:1024. 5 μL of a mixture of Reagent A (Invitrogen, Catalog No. PV3295) and Buffer B (Invitrogen, Catalog No. P3127) was added to a reaction well, the reaction system was incubated for 60 minutes at 25° C. The fluorescence was read by a NovoStar ELISA with excitation wavelength: 400 nm, and emission wavelength: 445 nm and 520 nm.
The activity of the compounds of the present invention: The above assay was used to determine the biochemical activity of the compounds of the present invention for inhibiting MEK kinase (MEK1).

In a further data set the test system is Colo205 cell. Put plainly: Proliferation inhibition on Colo205 (CCK8). Format: cell-based. As to conditions: Homo sapiens, COLO 205, Colo205, 72 hours. The text has this: Cell line used in the assay: Colo205 (Cell Bank of the Chinese Academy of Sciences, Catalog No. TCHu102).
The following in vitro cell assay is to determine the activity of the compounds of the present invention for inhibiting the proliferation of human colon cancer cell, and the activity is expressed as IC50. General programs of this kind of assay were as follows: First, the cell line to be tested (purchased from Cell Bank of the Chinese Academy of Sciences) was inoculated in a 96-well culture plate with a suitable cell concentration of 4000 cells/mL medium, and was cultured in a carbon dioxide incubator at 37° C., then grown overnight. The medium was replaced by new medium added with a series of concentrations (10000 nM, 1000 nM, 100 nM, 10 nM, 1 nM, 0.1 nM) of the test compound solutions. The plates were placed back in the incubator, and continuously cultured for 72 hours. After 72 hours, CCK8 (Cell Counting Kit-8, Catalog No.: CK04, purchased from colleagues chemical company) method was used to determine the proliferation inhibition activity of the test compounds. IC50 values were calculated from the inhibition data of the test compounds at a series of different concentrations.
The above assay was used to determine the biochemical activity of the compounds of the present invention.

For the next data set, the target named is T2, CYP2C19 (Homo sapiens, UniProt P33261).
T2 construct: from tissue; host or cells: human liver microsomes
Put plainly: In vitro CYP enzyme inhibition, human liver microsomes. It is filed as in vitro ADME. Conditions: probe (S)-Mephenytoin, single point method. As for the experimental part:
Human liver microsome incubation system was used to reflect the activity of enzymes based on the amount of metabolites produced. Enzyme inhibition of the test compounds was investigated on CYP1A2, CYP2C9, […], CYP3A4m, CYP3A4t and CYP2C19, and IC50 values (a concentration of the test compound that is required for 50% inhibition of enzyme activity) were measured. […] The appropriate amount of test compound standard sample was weighed, and diluted with DMSO to 50 mM to obtain stock solution I. The stock solution I was diluted with PBS to 100 μM to obtain the reaction liquid which is to be used in incubation. [table] The reaction mixture was prepared: 60 μL [table] The above mixture was preincubated for 5 minutes at 37° C., followed by addition of 40 μL of NADPH (2.5 mM, PBS formulation). The mixture solution was incubated for 20 minutes at 37° C. All incubated samples were set to double samples. 300 μL ice-cold acetonitrile was added to terminate the reaction. The reaction solution was added with 100 μl internal standard, mixed uniformly, and centrifuged for 10 minutes at 3500 rpm. The supernatant was transferred to the LC-MS/MS analysis. The activity of enzymes was reflected by the production amount of metabolites. Using a single point method, the formula was calculated as follows: According to the known literature: IC50>10 μM belongs to weaker inhibition, 1 μM<IC50<10 μM belong to moderate inhibition, IC50<1 μM belong to strong inhibition.

The nature of data set [2]: Pharmacokinetics assay in SD rats, intragastric administration. It is filed as in vivo, Sprague-Dawley (SD) rats. As to conditions: 10 mg/kg; for AUC / CL/F / half-life / MRT / Cmax: both sexes, Sprague-Dawley, rat, plasma, po; for AUC: read-out: Area Under Curve AUC; for CL/F: read-out: Clearance CL/F; for half-life: read-out: Half-Life T½ (converted); for MRT: read-out: Mean Residence Time MRT; for Cmax: read-out: Plasma Conc. Cmax. How it is done: Sprague-Dawley (SD) rats were used as test animals. The compounds of Example 1, Example 22, Example 29 and Example 31 were administered intragastrically to rats to determine the drug concentration in plasma at different time points by a LC/MS/MS method. The pharmacokinetic behavior of the compounds of the present invention was studied and evaluated in rats.
16 Healthy adult SD rats, half male and half female, purchased from SINO-BRITSH SIPPR/BK LAB. ANIMAL LTD., CO, Certificate No.: SCXK (Shanghai) 2008-0016, were divided into four groups, with 4 rats in each group.
The appropriate amounts of test compounds were weighed and mixed with 40 μL of tween 80 and 0.5% CMC-Na to prepare a 1 mg/mL suspension by an ultrasonic method.
After an overnight fast, 16 SD rats, half male and half female, were divided into 4 groups, with 4 rats in each group, and administered the test compounds intragastrically at a dose of 10 mg/kg, and an administration volume of 10 mL/kg.
Blood samples (0.1 mL) were taken from the orbital sinus before administration, and at 0.5 h, 1 h, 2 h, 4 h, 6 h, 8 h, 11 h, 24 h and 48 h after administration, stored in heparinized tubes, and centrifuged for 10 minutes at 3,500 rpm to separate blood plasma. The plasma samples were stored at −20° C. The rats were fed 2 hours after administration.
The concentration of the test compounds in rat plasma after intragastrically administering the test compounds was analyzed by a LC-MS/MS method. The linearity range of the method is 1.00-2000 ng/ml, and the lower limit of quantification is 1.00 ng/ml. Plasma samples were analyzed after protein precipitation.

Molecules are shown by their SMILES.

T2 sequence (P33261 whole entry): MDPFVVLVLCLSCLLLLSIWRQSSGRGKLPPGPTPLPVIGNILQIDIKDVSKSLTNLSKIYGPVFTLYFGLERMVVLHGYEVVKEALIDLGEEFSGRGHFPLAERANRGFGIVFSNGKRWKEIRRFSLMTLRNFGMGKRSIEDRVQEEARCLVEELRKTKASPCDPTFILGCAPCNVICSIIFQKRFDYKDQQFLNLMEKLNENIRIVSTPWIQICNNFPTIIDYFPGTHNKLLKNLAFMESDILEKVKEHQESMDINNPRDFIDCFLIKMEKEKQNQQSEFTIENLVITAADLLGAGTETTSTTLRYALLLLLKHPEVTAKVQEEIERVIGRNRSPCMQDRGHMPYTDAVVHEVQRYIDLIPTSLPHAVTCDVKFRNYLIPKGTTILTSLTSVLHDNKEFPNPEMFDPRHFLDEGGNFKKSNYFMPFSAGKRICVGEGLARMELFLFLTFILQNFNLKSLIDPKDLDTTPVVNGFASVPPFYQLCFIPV
T1 sequence (Q02750 whole entry): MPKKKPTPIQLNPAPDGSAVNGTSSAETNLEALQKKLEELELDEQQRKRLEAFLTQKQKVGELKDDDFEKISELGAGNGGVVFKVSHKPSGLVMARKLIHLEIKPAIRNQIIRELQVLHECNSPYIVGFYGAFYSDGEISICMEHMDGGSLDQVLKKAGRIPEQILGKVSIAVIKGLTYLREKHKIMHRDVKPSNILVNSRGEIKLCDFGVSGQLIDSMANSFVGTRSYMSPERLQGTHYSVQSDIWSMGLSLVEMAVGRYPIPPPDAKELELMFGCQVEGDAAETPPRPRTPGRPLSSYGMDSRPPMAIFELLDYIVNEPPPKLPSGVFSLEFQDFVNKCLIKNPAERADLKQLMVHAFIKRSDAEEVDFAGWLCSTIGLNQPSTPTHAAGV

One may read the IC50 as the point on the concentration scale where inhibition reaches its midpoint. In the case of `CCS(=O)(=O)Nc1cccc(Oc2cc(=O)n(C)c(Nc3ccc(I)cc3F)c2C(N)=O)c1C` [Example 3, 4-(3-(ethylsulfonamido)-2-methylphenoxy)-2-((2-fluoro-4-iodophenyl)amino)-1-methyl-6-oxo-1,6-dihydropyridine-3-carboxamide], the IC50 in data set [1] was 4.1 nM; with Colo205 cell it was 0.04 nM; against CYP2C19, greater than 10000 nM.

In general, AUC refers to concentration integrated over time. Broadly, the half-life is how long it takes for the measured level to halve. What is called MRT is the average time that molecules of a dose stay in the body. In general, Cmax refers to the peak of the concentration-time curve. Turning to `Cc1c(F)cccc1Oc1cc(=O)n(C)c(Nc2ccc(I)cc2F)c1C(N)=O` [Example 1, 4-(3-fluoro-2-methylphenoxy)-2-((2-fluoro-4-iodophenyl)amino)-1-methyl-6-oxo-1,6-dihydropyridine-3-carboxamide], in data set [2], the “Apparent Distribution Volume Vd” value worked out at 163.863 ± 87.909 L/kg, the AUC turned out to be 642 ± 187 ng·h/mL, the CL/F worked out at 280 ± 94.6 mL/min/kg and the half-life is 6.61 ± 1.66 h. Further, in data set [2], the MRT stood at 10.5 ± 2.41 h and the Cmax amounted to 56.3 ± 15.6 ng/mL. Also, the IC50 in data set [1] worked out at 4.7 nM. The IC50 in the data set on Colo205 cell is 0.7 nM. Also, the IC50 against CYP2C19 is greater than 10000 nM.

Turning to `Cc1ncccc1Oc1cc(=O)n(C)c(Nc2ccc(I)cc2F)c1C(N)=O` [Example 29, 2-((2-fluoro-4-iodophenyl)amino)-1-methyl-4-((2-methylpyridin-3-yl)oxy)-6-oxo-1,6-dihydropyridine-3-carboxamide], in data set [2], the “Apparent Distribution Volume Vd” value stood at 11.319 ± 6.87 L/kg, the area under the curve (AUC) came out at 6120 ± 3030 ng·h/mL, the CL/F was 32.9 ± 15.5 mL/min/kg and the half-life is 3.79 ± 0.76 h. In addition, in data set [2], the MRT was found to be 3.79 ± 0.5 h and the Cmax is 1440 ± 396 ng/mL. Further, the IC50 in data set [1] came to 3.6 nM. Also, the IC50 in the data set with Colo205 cell came to 0.8 nM. The compound also had an IC50 against CYP2C19 greater than 10000 nM.

Consider `Cc1ccc(Oc2cc(=O)n(C)c(Nc3ccc(I)cc3F)c2C(N)=O)cn1` [Example 31, 2-((2-fluoro-4-iodophenyl)amino)-1-methyl-4-((6-methylpyridin-3-yl)oxy)-6-oxo-1,6-dihydropyridine-3-carboxamide], for which, in data set [2], the “Apparent Distribution Volume Vd” value was 4.483 ± 3.051 L/kg, the AUC was determined as 18100 ± 9970 ng·h/mL, the CL/F came to 11.6 ± 5.9 mL/min/kg and the half-life was 4.12 ± 0.96 h. In data set [2], the mean residence time (MRT) turned out to be 4.43 ± 0.96 h and the peak concentration (Cmax) stood at 3370 ± 756 ng/mL. Moreover, the IC50 in data set [1] worked out at 3.9 nM. The midpoint of inhibition in the data set with Colo205 cell, the IC50, lay at 3.6 nM. The compound also returned an IC50 on CYP2C19 greater than 10000 nM.

Regarding `Cc1cc(F)ccc1Oc1cc(=O)n(C)c(Nc2ccc(I)cc2F)c1C(N)=O` [Example 22, 4-(4-fluoro-2-methylphenoxy)-2-((2-fluoro-4-iodophenyl)amino)-1-methyl-6-oxo-1,6-dihydropyridine-3-carboxamide], in data set [2], the “Apparent Distribution Volume Vd” value came to 98.789 ± 42.165 L/kg, the AUC was found to be 1110 ± 746 ng·h/mL, the CL/F came to 224 ± 151 mL/min/kg and the half-life is 7.18 ± 4.64 h. Also, in data set [2], the MRT was determined as 11.3 ± 6.7 h and the Cmax was determined as 108 ± 38 ng/mL. The IC50 in data set [1] was found to be 4.3 nM. For the same compound, the IC50 in the data set with Colo205 cell worked out at 6.1 nM. In addition, the IC50 against CYP2C19 was greater than 10000 nM.
